Measurements published in US20260325685A1, “Radiopharmaceutical Compositions Targeting Carbonic Anhydrase IX and Uses Thereof” (RayzeBio, Inc., priority 2023, published 2026).

Columns and labels:
human CA-IX = molecular target: T1, human CA-IX (Homo sapiens, UniProt Q16790); experiment: Surface Plasmon Resonance (SPR) binding kinetics to recombinant human CA-IX (Biacore 8K, single-cycle kinetics, 1:1 binding model); details: Chelated Metal: Lu-175; SPR, 25° C., pH 7.4; read-out: CAIX KD
T1 construct: purchased Acro CA9-H82E3
In short: (§1)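 Proteins were captured on streptavidin chips at 1200-1800 RU (CA-IX 180 s, CA-XII 75 s injection). Compound was run at 9 concentrations (100-0.39 nM) in PBS-P+ pH 7.4 with 1% DMSO, 120 s association, 1200 s dissociation, 25° C. Rate constants came from reference- and DMSO-corrected curves.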

human CA-XII = molecular target: T2, human CA-XII (Homo sapiens, UniProt O43570); experiment: Surface Plasmon Resonance (SPR) binding kinetics to recombinant human CA-XII (Biacore 8K, single-cycle kinetics, 1:1 binding model); details: Chelated Metal: Lu-175, 25° C., pH 7.4, read-out: CAXII KD
T2 construct: purchased Creative BioMart CA12-261H
In short: as §1

T2 sequence (O43570 25-354): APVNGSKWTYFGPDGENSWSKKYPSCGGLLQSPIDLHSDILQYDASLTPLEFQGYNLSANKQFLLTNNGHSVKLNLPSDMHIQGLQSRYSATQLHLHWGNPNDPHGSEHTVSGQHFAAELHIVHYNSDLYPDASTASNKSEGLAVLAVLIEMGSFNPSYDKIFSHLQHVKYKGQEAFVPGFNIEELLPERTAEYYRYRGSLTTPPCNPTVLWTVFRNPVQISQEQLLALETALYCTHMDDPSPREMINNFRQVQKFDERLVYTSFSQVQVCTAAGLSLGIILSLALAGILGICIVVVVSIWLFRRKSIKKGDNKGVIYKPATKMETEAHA

Row | SMILES | Kd (human CA-IX) | Kd (human CA-XII)
1 | CC(CCCC(=O)N1CCC2(CC2)C[C@H]1C(=O)N[C@@H](CC(=O)N1CCN(C(=O)CN2CCN(CC(=O)O)CCN(CC(=O)O)CCN(CC(=O)O)CC2)C[C@@H]1C(=O)NCCn1cc(C23CC(C(=O)Nc4nnc(S(N)(=O)=O)s4)(C2)C3)nn1)C(=O)O)(c1ccc(O)cc1)c1ccc(O)cc1.[Lu+3] [Compound 107.33] | < 1 nM | > 10 nM
2 | CNC(=O)C1(C(=O)NCC(=O)N2CCN(C(=O)CN3CCN(CC(=O)O)CCN(CC(=O)O)CCN(CC(=O)O)CC3)C[C@@H]2C(=O)NCCn2cc(C34CC(C(=O)Nc5nnc(S(N)(=O)=O)s5)(C3)C4)nn2)CCN(C(=O)CCCC(C)(c2ccc(O)cc2)c2ccc(O)cc2)CC1.[Lu+3] [Compound 107.34] | < 1 nM | > 10 nM
3 | Cc1cc(C(=O)Nc2nnc(S(N)(=O)=O)s2)ccc1-c1cn(CCNC(=O)[C@@H]2CN(C(=O)CN3CCN(CC(=O)O)CCN(CC(=O)O)CCN(CC(=O)O)CC3)CCN2C(=O)C[C@H](NC(=O)C[C@H](NC(=O)CCC(C)(c2ccc(O)cc2)c2ccc(O)cc2)C(=O)O)C(=O)O)nn1.[Lu+3] [Compound 107.35] | < 1 nM | > 10 nM
4 | CC(CCC(=O)N[C@@H](CC(=O)N[C@@H](CC(=O)N1CCN(C(=O)CN2CCN(CC(=O)O)CCN(CC(=O)O)CCN(CC(=O)O)CC2)C[C@H]1C(=O)NCCn1cc(-c2ccc(C(=O)Nc3nnc(S(N)(=O)=O)s3)cc2Cl)nn1)C(=O)O)C(=O)O)(c1ccc(O)cc1)c1ccc(O)cc1.[Lu+3] [Compound 107.36] | < 1 nM | > 10 nM
5 | NC(=O)C1(C(=O)NCC(=O)N2CCN(C(=O)CN3CCN(CC(=O)O)CCN(CC(=O)O)CCN(CC(=O)O)CC3)C[C@H]2C(=O)NCCn2cc(C34CC(C(=O)Nc5nnc(S(N)(=O)=O)s5)(C3)C4)nn2)CCN(C(=O)Cn2nc(-c3ccc(O)cc3)c3ccc(O)cc32)CC1.[Lu+3] [Compound 107.37] | > 10 nM | > 10 nM
6 | CC(CCC(=O)N[C@@H](CC(=O)N[C@@H](CC(=O)N1CCN(C(=O)CN2CCN(CC(=O)O)CCN(CC(=O)O)CCN(CC(=O)O)CC2)C[C@H]1C(=O)NCCn1cc(C23CC(C(=O)Nc4nnc(S(N)(=O)=O)s4)(C2)C3)nn1)C(=O)O)C(=O)O)(c1ccc(O)cc1)c1ccc(O)cc1.[Lu+3] [Compound 107.38] | < 1 nM | > 10 nM
7 | CC(CCC(=O)N[C@@H](CC(=O)N[C@@H](CCC(=O)N1CCN(C(=O)CN2CCN(CC(=O)O)CCN(CC(=O)O)CCN(CC(=O)O)CC2)C[C@H]1C(=O)NCCn1cc(C23CC(C(=O)Nc4nnc(S(N)(=O)=O)s4)(C2)C3)nn1)C(=O)O)C(=O)O)(c1ccc(O)cc1)c1ccc(O)cc1.[Lu+3] [Compound 107.39] | < 1 nM | > 10 nM
8 | CCC(CC)Nc1c(F)c(S(N)(=O)=O)c(F)c(F)c1S(=O)(=O)CCOCc1cn(CCNC(=O)[C@H]2CN(C(=O)CN3CCN(CC(=O)O)CCN(CC(=O)O)CCN(CC(=O)O)CC3)CCN2C(=O)C[C@H](NC(=O)[C@@H]2COCCN2C(=O)CCCc2ccc(O)cc2)C(=O)O)nn1.[Lu+3] [Compound 107.41] | 1 to 2.5 nM | > 10 nM
9 | C[C@H](Nc1c(F)c(S(N)(=O)=O)c(F)c(F)c1S(=O)(=O)CCOCc1cn(CCNC(=O)[C@H]2CN(C(=O)CN3CCN(CC(=O)O)CCN(CC(=O)O)CCN(CC(=O)O)CC3)CCN2C(=O)C[C@H](NC(=O)[C@@H]2COCCN2C(=O)CCCc2ccc(O)cc2)C(=O)O)nn1)C1CCCC1.[Lu+3] [Compound 107.42] | < 1 nM | 2.5 to 10 nM
10 | CC(CCCC(=O)N1CCOC[C@H]1C(=O)N[C@@H](CC(=O)N1CCN(C(=O)CN2CCN(CC(=O)O)CCN(CC(=O)O)CCN(CC(=O)O)CC2)C[C@@H]1C(=O)NCCn1cc(C23CC(C(=O)Nc4nnc(S(N)(=O)=O)s4)(C2)C3)nn1)C(N)=O)(c1ccc(O)cc1)c1ccc(O)cc1.[Lu+3] [Compound 107.44] | < 1 nM | > 10 nM
11 | NS(=O)(=O)c1c(F)c(F)c(S(=O)(=O)CCOCc2cn(CCCNC(=O)[C@@H]3CN(C(=O)CN4CCN(CC(=O)O)CCN(CC(=O)O)CCN(CC(=O)O)CC4)CCN3C(=O)CNC(=O)C3(C(=O)O)CCN(C(=O)CCCCc4ccc(O)cc4)CC3)nn2)c(NC2CCCCCCC2)c1F.[Lu+3] [Compound 107.45] | < 1 nM | 2.5 to 10 nM
12 | CC(CCC(=O)N[C@@H](CC(=O)N[C@@H](CC(=O)N1CCN(C(=O)CN2CCN(CC(=O)O)CCN(CC(=O)O)CCN(CC(=O)O)CC2)C[C@H]1C(=O)NCCn1cc(C23CC(C(=O)Nc4nnc(S(N)(=O)=O)s4)(C2)C3)nn1)C(N)=O)C(N)=O)(c1ccc(O)cc1)c1ccc(O)cc1.[Lu+3] [Compound 107.47] | 1 to 2.5 nM | > 10 nM
13 | CC(CCCC(=O)N1CCOC[C@H]1C(=O)N[C@@H](CC(=O)N1CCN(C(=O)CN2CCN(CC(=O)O)CCN(CC(=O)O)CCN(CC(=O)O)CC2)C[C@H]1C(=O)NCCn1cc(C23CC(c4cn5nc(S(N)(=O)=O)sc5n4)(C2)C3)nn1)C(=O)O)(c1ccc(O)cc1)c1ccc(O)cc1.[Lu+3] [Compound 107.48] | < 1 nM | 1 to 2.5 nM
